# Results taken from PubChem BioAssay AID330 (DTP/NCI, 2004).
# Values joined by “and” are separate entries in the source; they are usually repeats but may differ in a detail not shown here. Identical values can stand only once. Toxic doses and inconclusive results are not listed.
# System: P388 leukemia ip, CD2F1 mice, survival T/C
# Test: NCI In Vivo Anticancer Drug Screen. Data for tumor model P388 Leukemia (intraperitoneal) in CD2F1 (CDF1) mice
# Conditions: endpoint: median survival time, higher = longer survival
# How it was run: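 Mice carrying the transplanted tumor received test compound or vehicle. Survival was recorded in each group, and the value is the treated-group measurement divided by that of the vehicle-treated control group.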
# [1] = dose: 50.0 mg/kg/injection, schedule: Q01DX005 (ip), vehicle: saline with Tween-80
# [2] = dose: 100.0 mg/kg/injection, schedule: Q01DX005 (ip), vehicle: saline with Tween-80
# [3] = dose: 200.0 mg/kg/injection, schedule: Q01DX005 (ip), vehicle: saline with Tween-80
# [4] = dose: 50.0 mg/kg/injection, schedule: Q01DX005 (ip), vehicle: Klucel (hydroxypropylcellulose) (HPC)
# [5] = dose: 100.0 mg/kg/injection, schedule: Q01DX005 (ip), vehicle: Klucel (hydroxypropylcellulose) (HPC)
# [6] = dose: 12.5 mg/kg/injection, schedule: Q01DX009 (ip), vehicle: saline
# [7] = dose: 25.0 mg/kg/injection, schedule: Q01DX009 (ip), vehicle: saline
# [8] = dose: 50.0 mg/kg/injection, schedule: Q01DX009 (ip), vehicle: saline
# [9] = dose: 60.0 mg/kg/injection, schedule: Q01DX005 (ip), vehicle: Klucel (hydroxypropylcellulose) (HPC)
# [10] = dose: 120.0 mg/kg/injection, schedule: Q01DX005 (ip), vehicle: Klucel (hydroxypropylcellulose) (HPC)
# [11] = dose: 100.0 mg/kg/injection, schedule: Q01DX009 (ip), vehicle: saline
# [12] = dose: 200.0 mg/kg/injection, schedule: Q01DX009 (ip), vehicle: saline
# [13] = dose: 3.75 mg/kg/injection, schedule: Q01DX005 (ip), vehicle: Klucel (hydroxypropylcellulose) (HPC)
# [14] = dose: 7.5 mg/kg/injection, schedule: Q01DX005 (ip), vehicle: Klucel (hydroxypropylcellulose) (HPC)
# [15] = dose: 15.0 mg/kg/injection, schedule: Q01DX005 (ip), vehicle: Klucel (hydroxypropylcellulose) (HPC)
# [16] = dose: 60.0 mg/kg/injection, schedule: Q01DX005 (ip), vehicle: saline with Tween-80
# [17] = dose: 120.0 mg/kg/injection, schedule: Q01DX005 (ip), vehicle: saline with Tween-80
# [18] = dose: 240.0 mg/kg/injection, schedule: Q01DX005 (ip), vehicle: saline with Tween-80
# [19] = dose: 12.5 mg/kg/injection, schedule: Q01DX009 (ip), vehicle: saline with Tween-80
# [20] = dose: 50.0 mg/kg/injection, schedule: Q01DX009 (ip), vehicle: saline with Tween-80
# [21] = dose: 200.0 mg/kg/injection, schedule: Q01DX005 (ip), vehicle: Klucel (hydroxypropylcellulose) (HPC)
smiles,measurement,setting,value
CC1=CC2N(C=C1)C(c1cccc([N+](=O)[O-])c1)=NON2c1cc(C)ccn1 (stereo unspecified),T/C,[1],91 % of control
same,T/C,[2],87 % of control and 89 % of control
same,T/C,[3],87 % of control and 90 % of control
O=c1[nH]cnc(O)c1C1C=CC=CC=C1,T/C,[4],105 % of control
same,T/C,[5],114 % of control
CCCCCCc1c(C#N)c(S)[nH]c(=S)c1C#N,T/C,[6],95 % of control
same,T/C,[7],106 % of control
same,T/C,[8],106 % of control and 96 % of control
CCN(CC)C1=C/CC/C(c2ccccc2)=N/N=C\1c1ccccc1,T/C,[9],89 % of control
same,T/C,[10],95 % of control
same,T/C,"dose: 240.0 mg/kg/injection, schedule: Q01DX005 (ip), vehicle: Klucel (hydroxypropylcellulose) (HPC)",97 % of control
NC1=C(C(=O)c2ccccc2)CCCC1,T/C,[8],106 % of control
same,T/C,[11],97 % of control
same,T/C,[12],97 % of control
CCC[CH2][Sn]1([CH2]CCC)[O]CC[S]1,T/C,"dose: 3.12 mg/kg/injection, schedule: Q01DX009 (ip), vehicle: Klucel (hydroxypropylcellulose) (HPC)",116 % of control
CCCCCCCCCc1cc(CN2CCCCC2)c(O)c(CN2CCCCC2)c1,T/C,[6],112 % of control
same,T/C,[7],108 % of control
same,T/C,[8],102 % of control
COCON=C(C)C,T/C,"dose: 100.0 mg/kg/injection, schedule: Q01DX001 (ip), vehicle: saline",100 % of control
same,T/C,"dose: 200.0 mg/kg/injection, schedule: Q01DX001 (ip), vehicle: saline",99 % of control
same,T/C,"dose: 400.0 mg/kg/injection, schedule: Q01DX001 (ip), vehicle: saline",98 % of control
CC1CCC(C(C)C)C(NC(=O)c2ccc[n+](C)c2)C1 (stereo unspecified),T/C,"dose: 25.0 mg/kg/injection, schedule: Q04DX002 (ip), vehicle: saline",97 % of control
same,T/C,"dose: 50.0 mg/kg/injection, schedule: Q04DX002 (ip), vehicle: saline",97 % of control
Cc1ccc(-c2cs/c(=N\N=C3/CSC(=O)N3Cc3ccccc3)n2-c2cccc(C)c2)cc1,T/C,"dose: 100.0 mg/kg/injection, schedule: Q04DX002 (ip), vehicle: Klucel (hydroxypropylcellulose) (HPC)",89 % of control
same,T/C,"dose: 200.0 mg/kg/injection, schedule: Q04DX002 (ip), vehicle: Klucel (hydroxypropylcellulose) (HPC)",89 % of control
same,T/C,"dose: 400.0 mg/kg/injection, schedule: Q04DX002 (ip), vehicle: Klucel (hydroxypropylcellulose) (HPC)",91 % of control
COc1cc(C2c3cc4c(cc3CC3COC(=O)N32)OCO4)cc(OC)c1OC (stereo unspecified),T/C,[13],98 % of control and 92 % of control
same,T/C,[14],88 % of control and 91 % of control and 92 % of control
same,T/C,[15],92 % of control (2×) and 97 % of control
CC1=CC(C)=NC2NNC(=O)C12 (stereo unspecified),T/C,[16],110 % of control
same,T/C,[17],109 % of control
same,T/C,[18],105 % of control
COC(=O)c1ccc(OP(=O)(N(C)C)N(C)C)cc1,T/C,"dose: 3.12 mg/kg/injection, schedule: Q01DX009 (ip), vehicle: saline with Tween-80",98 % of control and 97 % of control
same,T/C,"dose: 6.25 mg/kg/injection, schedule: Q01DX009 (ip), vehicle: saline with Tween-80",96 % of control
same,T/C,[19],104 % of control and 96 % of control
O=c1ccc2ccc3[nH]onc3c2c1,T/C,[1],100 % of control
same,T/C,[2],93 % of control
same,T/C,[3],88 % of control
Nc1nnc(CCC(=O)Nc2ccccc2Cl)o1,T/C,[16],98 % of control
same,T/C,[17],101 % of control
same,T/C,[18],97 % of control
OC(CC1CCCCN1)c1cc(C(F)(F)F)nc2c(C(F)(F)F)cccc12 (stereo unspecified),T/C,[19],101 % of control
same,T/C,"dose: 25.0 mg/kg/injection, schedule: Q01DX009 (ip), vehicle: saline with Tween-80",100 % of control
same,T/C,[20],108 % of control
Cc1ccc(S(=O)(=O)N/N=C/c2c(Cl)nc3n2CCS3)cc1,T/C,"dose: 100.0 mg/kg/injection, schedule: Q01DX001 (ip), vehicle: Klucel (hydroxypropylcellulose) (HPC)",101 % of control
same,T/C,"dose: 200.0 mg/kg/injection, schedule: Q01DX001 (ip), vehicle: Klucel (hydroxypropylcellulose) (HPC)",94 % of control
same,T/C,"dose: 400.0 mg/kg/injection, schedule: Q01DX001 (ip), vehicle: Klucel (hydroxypropylcellulose) (HPC)",94 % of control
CCOC(=O)CNC(=O)C(CSSCC(NC(=O)OCc1ccccc1)C(=O)OC)NC(=O)C(NC(=O)OCc1ccccc1)C(C)C (stereo unspecified),T/C,[4],100 % of control
same,T/C,[5],98 % of control
same,T/C,[21],95 % of control
CC1(C)CC(NCCO)=CC(=S)N1,T/C,[4],103 % of control
same,T/C,[5],101 % of control
same,T/C,[21],99 % of control
Cn1c2ccccc2c(=O)c2cc(NC(=O)CCC(=O)Nc3ccc4c(c3)c(=O)c3ccccc3n4C)ccc21,T/C,[1],99 % of control
same,T/C,[2],97 % of control
same,T/C,[3],97 % of control
Cc1cnc(Sc2ncccn2)c([N+](=O)[O-])c1,T/C,[8],101 % of control
same,T/C,[11],104 % of control
same,T/C,[12],104 % of control
CC(C)(C)N1CCC1CN (stereo unspecified),T/C,"dose: 25.0 mg/kg/injection, schedule: Q01DX005 (ip), vehicle: saline",90 % of control
same,T/C,"dose: 50.0 mg/kg/injection, schedule: Q01DX005 (ip), vehicle: saline",100 % of control
same,T/C,"dose: 100.0 mg/kg/injection, schedule: Q01DX005 (ip), vehicle: saline",104 % of control
same,T/C,"dose: 200.0 mg/kg/injection, schedule: Q01DX005 (ip), vehicle: saline",100 % of control
Cc1nc(O)c(-c2ccc(Cl)cc2)s1,T/C,[20],102 % of control
same,T/C,"dose: 100.0 mg/kg/injection, schedule: Q01DX009 (ip), vehicle: saline with Tween-80",103 % of control
same,T/C,"dose: 200.0 mg/kg/injection, schedule: Q01DX009 (ip), vehicle: saline with Tween-80",101 % of control
O=C1Nc2ccccc2/C1=N/N1C(=O)CSC1=S,T/C,"dose: 0.93 mg/kg/injection, schedule: Q01DX005 (ip), vehicle: Klucel (hydroxypropylcellulose) (HPC)",97 % of control
same,T/C,"dose: 1.87 mg/kg/injection, schedule: Q01DX005 (ip), vehicle: Klucel (hydroxypropylcellulose) (HPC)",94 % of control
same,T/C,[13],88 % of control
CN(C)c1ccc(NC2=C(Cl)C(=O)C(Nc3ccc(N(C)C)cc3)=C(Cl)C2=O)cc1,T/C,"dose: 25.0 mg/kg/injection, schedule: Q01DX005 (ip), vehicle: saline with Tween-80",101 % of control
same,T/C,[1],92 % of control
same,T/C,[2],88 % of control
CCC(c1ccc(Cl)cc1)C(C#N)c1ccc(Cl)cc1 (stereo unspecified),T/C,"dose: 50.0 mg/kg/injection, schedule: Q01DX009 (ip), vehicle: Klucel (hydroxypropylcellulose) (HPC)",108 % of control
same,T/C,"dose: 100.0 mg/kg/injection, schedule: Q01DX009 (ip), vehicle: Klucel (hydroxypropylcellulose) (HPC)",104 % of control
same,T/C,"dose: 200.0 mg/kg/injection, schedule: Q01DX009 (ip), vehicle: Klucel (hydroxypropylcellulose) (HPC)",102 % of control
Nc1cc2c3cccnc3ccc2c2ncccc12,T/C,"dose: 100.0 mg/kg/injection, schedule: Q01DX001 (ip), vehicle: saline with Tween-80",94 % of control
same,T/C,"dose: 200.0 mg/kg/injection, schedule: Q01DX001 (ip), vehicle: saline with Tween-80",89 % of control
same,T/C,"dose: 400.0 mg/kg/injection, schedule: Q01DX001 (ip), vehicle: saline with Tween-80",95 % of control
COc1cc2ccc3c4cc(OC)c(OC)cc4c[n+](C)c3c2cc1O,T/C,"dose: 50.0 mg/kg/injection, schedule: Q04DX009 (ip), vehicle: Klucel (hydroxypropylcellulose) (HPC)",117 % of control
same,T/C,"dose: 100.0 mg/kg/injection, schedule: Q04DX009 (ip), vehicle: Klucel (hydroxypropylcellulose) (HPC)",122 % of control
Cc1ccc(S(=O)(=O)C2(NC(=O)c3ccc(Cl)cc3)CC2)cc1,T/C,"dose: 30.0 mg/kg/injection, schedule: Q01DX005 (ip), vehicle: Klucel (hydroxypropylcellulose) (HPC)",92 % of control and 94 % of control
same,T/C,[9],93 % of control
same,T/C,[10],86 % of control and 91 % of control and 92 % of control
C#CC1=CC(=O)C(OC)=CC1=O,T/C,[14],99 % of control
same,T/C,[15],100 % of control
Cc1ccc(N=Nc2c(-c3cccs3)nn(C(=S)S)c2C(F)(F)F)cc1,T/C,[4],92 % of control
same,T/C,[5],92 % of control
same,T/C,[21],87 % of control
CNC(=O)N1CC2CCC(C)(C1)OC2(C)C (stereo unspecified),T/C,[4],97 % of control
same,T/C,[5],100 % of control and 103 % of control
same,T/C,[21],103 % of control and 106 % of control
